Data taken from patent publication US10150737B2, “Compounds for controlling arthropods” (priority 2013, dated 2018).

Tests used:
[1] = logP determination by HPLC on a reversed-phase column (C18); assay type: physicochemical; settings: for logP^a): HPLC-MS method a); for log P: HPLC-MS; for logP: HPLC, C18 reversed phase, acetonitrile/water with formic acid, EEC Directive 79/831 Annex V.A8
[2] = tested on: Boophilus microplus; test: Boophilus microplus - injection test; assay type: in vivo; settings: application rate 20 μg/animal; injection into engorged adult female ticks; after 7 days
Description: (§1) Solvent: dimethyl sulphoxide
To produce an appropriate active ingredient formulation, 10 mg of active ingredient are mixed with 0.5 ml of solvent and the concentrate is diluted with solvent to the desired concentration.
1 μl of the active ingredient solution is injected into the abdomen of 5 engorged adult female cattle ticks (Boophilus microplus). The animals are transferred into dishes and kept in a climate-controlled room.
Efficacy is assessed after 7 days by laying of fertile eggs. Eggs which are not visibly fertile are stored in a climate-controlled cabinet until the larvae hatch after about 42 days. An efficacy of 100% means that none of the ticks has laid any fertile eggs; 0% means that all the eggs are fertile.

[3] = tested on: Phaedon cochleariae; test: Phaedon cochleariae - spray test; assay type: in vivo; settings: larvae on Chinese cabbage leaf discs, after 7 days
Description: (§2) Solvent: 78.0 parts by weight of acetone and 1.5 parts by weight of dimethylformamide
(§3) Emulsifier: alkylaryl polyglycol ether
(§4) To produce an appropriate active ingredient formulation, 1 part by weight of active ingredient is dissolved using the specified parts by weight of solvent and made up with water containing an emulsifier concentration of 1000 ppm until the desired concentration is attained. To produce further test concentrations, the preparation is diluted with emulsifier-containing water.
Discs of Chinese cabbage leaves (Brassica pekinensis) are sprayed with an active ingredient formulation of the desired concentration and, after drying, populated with larvae of the mustard beetle (Phaedon cochleariae).
After 7 days, efficacy in % is determined. 100% means that all the beetle larvae have been killed; 0% means that no beetle larvae have been killed.

[4] = tested on: Spodoptera frugiperda; test: Spodoptera frugiperda - spray test; assay type: in vivo; settings: caterpillars on maize leaf discs, after 7 days
Description: as §2, §3, §4
Leaf discs of maize (Zea mays) are sprayed with an active ingredient formulation of the desired concentration and, after drying, populated with caterpillars of the armyworm (Spodoptera frugiperda).
After 7 days, efficacy in % is determined. 100% means that all the caterpillars have been killed; 0% means that no caterpillars have been killed.

[5] = tested on: Lucilia cuprina; test: Lucilia cuprina test; assay type: in vivo; settings: application rate 100 ppm; L1 larvae; after 2 days
Description: as §1
To produce an appropriate active ingredient formulation, 10 mg of active ingredient are mixed with 0.5 ml of dimethyl sulphoxide, and the concentrate is diluted with water to the desired concentration.
About 20 L1 larvae of the Australian sheep blowfly (Lucilia cuprina) are transferred into a test vessel containing minced horsemeat and the active ingredient preparation of the desired concentration.
After 2 days, the kill in % is determined. 100% means that all the larvae have been killed; 0% means that none of the larvae have been killed.

[6] = tested on: Ctenocephalides felis; test: Ctenocephalides felis - oral test; assay type: in vivo; settings: application rate 100 ppm in citrated cattle blood; after 2 days
Description: as §1
For the purpose of producing an appropriate active ingredient formulation, 10 mg of active ingredient are mixed with 0.5 ml of dimethyl sulphoxide. Dilution with citrated cattle blood gives the desired concentration.
About 20 unfed adult cat fleas (Ctenocephalides felis) are placed into a chamber which is closed at the top and bottom with gauze. A metal cylinder whose bottom end is closed with parafilm is placed onto the chamber. The cylinder contains the blood/active ingredient preparation, which can be imbibed by the fleas through the parafilm membrane.
After 2 days, the kill in % is determined. 100% means that all of the fleas have been killed; 0% means that none of the fleas have been killed.

[7] = tested on: Tetranychus urticae; test: Tetranychus urticae - spray test, OP-resistant; assay type: in vivo; settings: bean leaf discs, after 6 days
Description: as §2, §3, §4
Discs of bean leaves (Phaseolus vulgaris) infested by all stages of the greenhouse red spider mite (Tetranychus urticae) are sprayed with an active ingredient formulation of the desired concentration.
After 6 days, efficacy in % is determined. 100% means that all the spider mites have been killed; 0% means that none of the spider mites have been killed.

[8] = reversed-phase column (C18), Table I-T3

| SMILES | logP^a) [1] | efficacy ([3]; application rate 100 g/ha) [%] | efficacy ([4]; application rate 100 g/ha) [%] | log P [1, 8] | efficacy ([7]; application rate 100 g/ha) [%] | further results |
| --- | --- | --- | --- | --- | --- | --- |
| Cc1cc(C(F)(C(F)(F)F)C(F)(F)F)cc(C)c1-c1ccn(-c2ccc(Cl)c(C(=O)NC3(C#N)CC3)c2)n1 [I-T2-2] | 4.8 | 100 | 100 | – | – | efficacy (laying of fertile eggs) [2]: 100% |
| Cc1cc(C(F)(C(F)(F)F)C(F)(F)F)cc(C)c1-n1cc(-c2ccc(Cl)c(C(=O)NCC(=O)NCC(F)(F)F)c2)cn1 [I-T3-6] | 4.1 | 100 | – | – | – | logP^a) [1, 8]: 4.1; efficacy (laying of fertile eggs) [2]: 100%; efficacy (kill) [5]: 100% |
| Cc1cc(C(F)(C(F)(F)F)C(F)(F)F)cc(C)c1-n1cc(-c2cc(C(=O)NC3CC3)c(F)cc2Cl)cn1 [I-T3-11] | 4.9 | – | – | – | – | logP^a) [1, 8]: 4.9; efficacy (laying of fertile eggs) [2]: 100%; efficacy (kill) [6]: 95% |
| Cc1cc(C(F)(C(F)(F)F)C(F)(F)F)cc(C)c1-n1cc(-c2cc(C(=O)NC3CC3)cc(C(F)(F)F)c2)cn1 [I-T3-15] | 4.9 | – | – | – | – | logP^a) [1, 8]: 4.9; efficacy (laying of fertile eggs) [2]: 100%; efficacy (kill) [6]: 90%; efficacy (kill) [5]: 100%; efficacy ([3]; application rate 500 g/ha): 100% |
| Cc1cc(C(F)(C(F)(F)F)C(F)(F)F)cc(C)c1-n1cc(-c2cc(C(=O)NC3(C#N)CC3)ccc2F)cn1 [I-T3-19] | 4.3 | – | – | – | – | logP^a) [1, 8]: 4.3; efficacy (laying of fertile eggs) [2]: 100%; efficacy (kill) [6]: 95%; efficacy ([3]; application rate 500 g/ha): 100%; efficacy ([4]; application rate 500 g/ha): 100% |
| N#CC1(NC(=O)c2cccc(-c3cnn(-c4c(Cl)cc(C(F)(C(F)(F)F)C(F)(F)F)cc4Cl)c3)c2F)CC1 [I-T3-22] | 4.1 | – | – | – | – | logP^a) [1, 8]: 4.1; efficacy ([3]; application rate 500 g/ha): 100%; efficacy ([4]; application rate 500 g/ha): 100%; efficacy ([7]; application rate 500 g/ha): 100% |
| O=C(NCC(F)(F)F)c1cc(-c2cnn(-c3ccc(C(F)(C(F)(F)F)C(F)(F)F)cc3Cl)c2)ccc1Cl [I-T3-32] | 4.7 | – | – | – | – | logP^a) [1, 8]: 4.7; efficacy (laying of fertile eggs) [2]: 100%; efficacy (kill) [6]: 100%; efficacy (kill) [5]: 100% |
| O=C(NCCC(F)(F)F)c1cc(-c2cnn(-c3ccc(C(F)(C(F)(F)F)C(F)(F)F)cc3Cl)c2)ccc1Cl [I-T3-33] | 4.7 | – | – | – | – | logP^a) [1, 8]: 4.7; efficacy (laying of fertile eggs) [2]: 100%; efficacy (kill) [6]: 100%; efficacy (kill) [5]: 100% |
| O=C(NC1CC1)c1cc(-c2cnn(-c3ncc(C(F)(F)F)cc3Cl)c2)ccc1Cl [I-T3-60] | 3.2 | – | – | – | – | logP^a) [1, 8]: 3.2; efficacy (laying of fertile eggs) [2]: 100%; efficacy (kill) [6]: 90%; efficacy (kill) [5]: 90% |
| O=C(NC1CC1)c1cc(-c2cnn(-c3ncc(C(F)(C(F)(F)F)C(F)(F)F)cc3Cl)c2)ccc1Cl [I-T3-152] | – | 100 | 100 | 4.1 | – | logP^a) ([1]; reversed-phase column (C18)): 4.1 |
| N#CC1(NC(=O)c2cc(-c3cnn(-c4c(Cl)cc(C(F)(F)F)cc4[N+](=O)[O-])c3)ccc2Cl)CC1 [I-T3-169] | – | 100 | 83 | 3.2 | 100 | – |
| CCSc1cc(C(F)(F)F)cc(Cl)c1-n1cc(-c2ccc(Cl)c(C(=O)NC3CC3)c2)cn1 [I-T3-172] | – | 100 | – | 3.9 | 90 | – |
| CCSc1cc(C(F)(F)F)cc(C#N)c1-n1cc(-c2ccc(Cl)c(C(=O)NC3(C#N)CC3)c2)cn1 [I-T3-177] | – | 100 | 83 | 3.4 | 100 | – |
| CCS(=O)(=O)c1cc(C(F)(F)F)cc(Cl)c1-n1cc(-c2ccc(Cl)c(C(=O)NC3CC3)c2)cn1 [I-T3-178] | – | 100 | – | 3.2 | 100 | – |
| CCS(=O)(=O)c1cc(C(F)(F)F)cc(C#N)c1-n1cc(-c2ccc(Cl)c(C(=O)NC3CC3)c2)cn1 [I-T3-180] | – | 100 | – | 2.8 | 100 | – |
| CC[S+]([O-])c1cc(C(F)(F)F)cc(C#N)c1-n1cc(-c2ccc(Cl)c(C(=O)NC3CC3)c2)cn1 (centres unmarked) [I-T3-181] | – | 100 | – | 2.7 | 100 | – |
| CCS(=O)(=O)c1cc(C(F)(F)F)cc(Cl)c1-n1cc(-c2ccc(Cl)c(C(=O)NC3(C#N)CC3)c2)cn1 [I-T3-183] | – | 100 | – | 3.1 | 100 | – |
| CCS(=O)(=O)c1cc(C(F)(F)F)cc(C#N)c1-n1cc(-c2ccc(Cl)c(C(=O)NC3(C#N)CC3)c2)cn1 [I-T3-190] | – | 100 | – | 2.9 | 100 | – |
| CCSc1cc(C(F)(C(F)(F)F)C(F)(F)F)cc(SCC)c1-n1cc(-c2ccc(Cl)c(C(=O)NC3(C#N)CC3)c2)cn1 [I-T3-191] | – | 100 | 100 | 4.7 | – | – |
| CCSc1cc(C(F)(C(F)(F)F)C(F)(F)F)cc(Cl)c1-n1cc(-c2ccc(Cl)c(C(=O)NC3(C#N)CC3)c2)cn1 [I-T3-192] | – | 100 | 100 | 4.5 | 100 | – |
| CC[S+]([O-])c1cc(C(F)(C(F)(F)F)C(F)(F)F)cc(Cl)c1-n1cc(-c2ccc(Cl)c(C(=O)NC3(C#N)CC3)c2)cn1 (centres unmarked) [I-T3-195] | – | 100 | – | 3.8 | 90 | – |
| Cc1cc(C(F)(C(F)(F)F)C(F)(F)F)cc(C(F)(F)F)c1-n1cc(-c2cnc(Cl)c(C(=O)NCC3(C#N)CC3)c2)cn1 [I-T3-197] | – | 100 | 100 | 4.0 | 100 | – |
| CCS(=O)(=O)c1cc(C(F)(C(F)(F)F)C(F)(F)F)cc(S(=O)(=O)CC)c1-n1cc(-c2ccc(Cl)c(C(=O)NC3(C#N)CC3)c2)cn1 [I-T3-198] | – | 100 | 100 | 3.7 | – | – |
| O=C(NC1CC1)c1cc(-c2cnn(-c3c(Cl)cc(C(O)(C(F)(F)F)C(F)(F)F)cc3Cl)c2)cnc1Cl [I-T3-221] | – | 100 | – | 3.0 | 100 | – |
| N#CC1(NC(=O)c2cc(-c3cnn(-c4c(Cl)cc(C(O)(C(F)(F)F)C(F)(F)F)cc4Cl)c3)cnc2Cl)CC1 [I-T3-222] | – | 100 | – | 3.0 | 100 | – |
| CN(C(=O)c1cc(-c2cnn(-c3c(Cl)cc(C(O)(C(F)(F)F)C(F)(F)F)cc3Cl)c2)cnc1Cl)C1(C#N)CC1 [I-T3-223] | – | 100 | – | 3.3 | 100 | – |
| CN(C(=O)c1cc(-c2ccn(-c3c(Cl)cc(C(F)(C(F)(F)F)C(F)(F)F)cc3Cl)c2)cnc1Cl)C1CC1 [I-T46-3] | – | 100 | 100 | – | – | logP [1]: 5.0 |
| O=C(NC1CC1)c1cc(-c2ccn(-c3c(Cl)cc(C(F)(C(F)(F)F)C(F)(F)F)cc3Cl)c2)cnc1Cl [I-T46-4] | – | 100 | 100 | – | 100 | logP [1]: 4.5 |
| N#CC1(NC(=O)c2cc(-c3ccn(-c4c(Cl)cc(C(F)(C(F)(F)F)C(F)(F)F)cc4Cl)c3)cnc2Cl)CC1 [I-T46-5] | – | 100 | 100 | – | 100 | logP [1]: 4.4 |
| CN(C(=O)c1cc(-c2ccn(-c3c(Cl)cc(C(F)(C(F)(F)F)C(F)(F)F)cc3Cl)c2)cnc1Cl)C1(C#N)CC1 [I-T46-6] | – | 100 | 100 | – | 100 | logP [1]: 4.8 |
